{"source": "paper PMC7449217", "about": "“The FDA-Approved Drug Nelfinavir Inhibits Lytic Cell-Free but Not Cell-Associated Nonlytic Transmission of Human Adenovirus” (Antimicrobial Agents and Chemotherapy, 2020)", "key": {"[1]": {"system": "HSV-1-CMV-GFP", "experiment": "fluorescence-based plaque-forming assay, A549 cells", "assay_type": "cell-based, herpes simplex virus 1", "procedure": "(§1) Per 96-well plate, 15,000 A549 cells, 10,000 HeLa cells, 30,000 HBECs, 30,000 HCE cells, or 30,000 CMT-93 cells were seeded in 100 μl of the respective supplemented medium and allowed to settle for 1 h at room temperature (RT) prior to cell culture incubation at 37°C with 5% CO2 and 95% humidity. The following day, the medium was replaced with 50 μl of the respective virus stock dilution giving rise to 5 to 50 plaques per 96-well plate. Fifty microliters of nelfinavir to obtain a 0.1 to 50 μM final concentration or the DMSO solvent control was also added, both in supplemented medium. For each experiment, a noninfected, treated control was performed. […] Plates were imaged on either an IXM-XL or an IXM-C automated high-throughput fluorescence microscope (Molecular Devices, San Jose, CA, USA) using a 4× objective in wide-field mode. Hoechst staining was recorded in the 4′,6-diamidino-2-phenylindole (DAPI) channel, the fluorescein isothiocyanate (FITC)/GFP channel was acquired for viral GFP, and the tetramethyl rhodamine isothiocyanate (TRITC)/Texas Red channel was acquired for hexon immunofluorescence staining.\n(§2) The infection phenotype for each well was quantified using Plaque2.0 ([101]). The number of plaques was determined based on the infection signal (viral GFP or hexon immunofluorescence staining). […] The mean TI50 was calculated as the EC50/TC50 ratio of the means. […]"}, "[2]": {"system": "HAdV-C2-dE3B-GFP", "parameters": "method as in earlier work", "conditions": "A549, 1.25 μM compound, normalized to neg. ctr., cited from earlier work"}, "[3]": {"biological_target": "T1, L3/p23 cysteine protease (Human adenovirus C serotype 5, UniProt P03253)", "T1 construct": "Double-CsCl-purified HAdV particles grown in the presence or absence of nelfinavir; endogenous in cells", "T1 sequence (P03253 whole entry)": "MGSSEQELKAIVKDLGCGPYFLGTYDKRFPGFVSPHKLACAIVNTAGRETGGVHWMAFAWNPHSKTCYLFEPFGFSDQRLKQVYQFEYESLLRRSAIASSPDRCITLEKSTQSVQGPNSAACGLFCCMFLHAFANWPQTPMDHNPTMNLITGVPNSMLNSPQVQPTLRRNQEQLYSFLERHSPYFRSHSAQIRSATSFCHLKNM", "experiment": "Western blot analysis of HAdV protease activity (pVI/VI, pVII/VII in purified HAdV-C5)", "assay_type": "cell-based", "conditions": "purified HAdV-C5 grown in the presence of nelfinavir", "procedure": "HAdV-C5 was amplified in medium containing 0, 1.25, or 3 μM nelfinavir for 4 days. Cells were harvested and disrupted by three freeze-thaw cycles. The cell debris was removed by freon extraction, and mature full HAdV virions were purified by two rounds of CsCl gradient ultracentrifugation ([162]). The protein concentration was determined by a bicinchoninic acid (BCA) assay (Pierce BCA protein assay kit; Thermo Fisher Scientific, Waltham, MA, USA). For long-term storage, virus stocks were supplemented with 10% (vol/vol) glycerol and kept at −80°C.\nDouble-CsCl-purified HAdV particles grown in the presence or absence of nelfinavir (HAdV-C5^±Nelfinavir stocks) and a size standard (PageRuler plus; Thermo Fisher Scientific, Waltham, MA, USA) were size separated on a 12% acrylamide gel under reducing conditions and transferred to a polyvinylidene difluoride (PVDF) membrane. HAdV proteins were detected using primary antibodies, 1:10,000 R72 rabbit antifiber ([181]), 1:1,000 rabbit anti-pVI/VI ([51]), and 1:1,000 R3 rabbit anti-pVII/VII (Ulf Pettersson, Uppsala University), and visualized using goat anti-rabbit-horseradish peroxidase (HRP) (catalog number 7074; Cell Signaling Technology, Danvers, MA, USA) and the ECL Prime Western blotting detection reagent (GE Healthcare, Pittsburgh, PA, USA). […]"}, "[4]": {"system": "A549 cells", "conditions": "cited from earlier work"}, "[5]": {"system": "CMT-93 cells", "experiment": "TC50, number of nuclei in noninfected treated cells", "assay_type": "cell-based, mouse", "conditions": "noninfected CMT-93, nuclei, 4 dpi", "procedure": "as §1, §2"}}, "note": "Where a name gives a salt, the structure may show the parent alone. Read-outs that look alike come from different tables or passages of the source.", "data": [{"compound": "Cc1c(O)cccc1C(=O)N[C@@H](CSc1ccccc1)[C@H](O)CN1C[C@H]2CCCC[C@H]2C[C@H]1C(=O)NC(C)(C)C", "note": "[Nelfinavir, Nelfinavir mesylate]", "values": [{"measurement": "TI50 (TC50/IC50)", "setting": "[1]; HSV-1-CMV-GFP in A549, 1 dpi, GFP", "result": 17.25}, {"measurement": "EC50", "setting": "[1]; Human alphaherpesvirus 1, A549", "result": 2.87, "unit": "µM"}, {"measurement": "Normalized mean read-outs: Infected nuclei", "setting": "[2]; analysis EPFL", "result": 0.20}, {"measurement": "Normalized mean read-outs: Infection index", "setting": "[2]; analysis EPFL", "result": 0.27}, {"measurement": "Normalized mean read-outs: Nuclei", "setting": "[2]; analysis EPFL", "result": 0.74}, {"measurement": "Normalized mean read-outs: Plaques", "setting": "[2]; analysis EPFL", "result": 0.00}, {"measurement": "Normalized mean read-outs: Virus intensity", "setting": "[2]; analysis EPFL", "result": 0.33, "unit": "AU"}, {"measurement": "Normalized mean read-outs: Infected nuclei", "setting": "[2]; analysis UZH", "result": 0.20}, {"measurement": "Normalized mean read-outs: Infection index", "setting": "[2]; analysis UZH", "result": 0.23}, {"measurement": "Normalized mean read-outs: Nuclei", "setting": "[2]; analysis UZH", "result": 0.85}, {"measurement": "Normalized mean read-outs: Plaques", "setting": "[2]; analysis UZH", "result": 0.0274}, {"measurement": "Normalized mean read-outs: Virus intensity", "setting": "[2]; analysis UZH", "result": 0.30, "unit": "AU"}, {"measurement": "effect on proteolytic maturation of the virus by L3/p23 cysteine protease", "setting": "[3]", "result": "did not affect"}, {"measurement": "Toxic", "setting": "[4]", "result": "no"}, {"measurement": "TC50", "setting": "[5]; line MAdV-1-pIX-FS2A-GFP", "result": 21.29, "unit": "µM"}, {"measurement": "TC50", "setting": "[5]; line MAdV-3-pIX-FS2A-GFP", "result": 26.07, "unit": "µM"}]}]}
